Data as given in the supplement of paper PMC10307832.

Experiments:
Assay in all cases: relative viability (nuclei count vs DMSO), 5 days (fraction); higher = more cells survive
IPA-3 + Phenformin = compound: C1=CC=C2C(=C1)C=CC(=C2SSC3=C(C=CC4=CC=CC=C43)O)O [IPA-3] + N=C(N)NC(=N)NCCc1ccccc1 [Phenformin] (partner 250 µM)
In short: (§1)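 Lung cancer cell lines were seeded in 1536-well plates and dosed by pin tool the next day, with either a single drug or a fixed anchor-drug dose combined with five library-drug doses (not always all listed) spaced in √10 steps. Five days later, one step fixed the cells and stained their nuclei (final 0.05% Triton X-100, 1% formaldehyde, 1 ug/ml Hoechst), and nuclei were counted on 4× images. Relative viability is the nuclei count in treated wells divided by the count in vehicle wells, and each value is the median of duplicate plates.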

Doramapimod + Crizotinib = compound: Cc1ccc(-n2nc(C(C)(C)C)cc2NC(=O)Nc2ccc(OCCN3CCOCC3)c3ccccc23)cc1 [Doramapimod] + C[C@@H](Oc1cc(-c2cnn(C3CCNCC3)c2)cnc1N)c1c(Cl)ccc(F)c1Cl [Crizotinib] (partner 1 µM)
In short: as §1

Doramapimod + Phenformin = compound: Cc1ccc(-n2nc(C(C)(C)C)cc2NC(=O)Nc2ccc(OCCN3CCOCC3)c3ccccc23)cc1 [Doramapimod] + N=C(N)NC(=N)NCCc1ccccc1 [Phenformin] (partner 250 µM)
In short: as §1

RAF265 + Tozasertib = compound: Cn1c(Nc2ccc(C(F)(F)F)cc2)nc2cc(Oc3ccnc(-c4ncc(C(F)(F)F)[nH]4)c3)ccc21 [RAF265] + Cc1cc(Nc2cc(N3CCN(C)CC3)nc(Sc3ccc(NC(=O)C4CC4)cc3)n2)n[nH]1 [Tozasertib] (partner 0.1 µM)
In short: as §1

Cell Line: NCI-H650
- relative viability (IPA-3 + Phenformin; first compound 0.2 µM): 0.492
- relative viability (IPA-3 + Phenformin; first compound 0.6325 µM): 0.511
- relative viability (IPA-3 + Phenformin; first compound 2 µM): 0.457
- relative viability (IPA-3 + Phenformin; first compound 6.325 µM): 0.463
- relative viability (IPA-3 + Phenformin; first compound 20 µM): 0.451
- relative viability (Doramapimod + Crizotinib; first compound 0.02 µM): 0.77
- relative viability (Doramapimod + Crizotinib; first compound 0.06325 µM): 0.661
- relative viability (Doramapimod + Crizotinib; first compound 0.2 µM): 0.826
- relative viability (Doramapimod + Crizotinib; first compound 0.6325 µM): 0.783
- relative viability (Doramapimod + Crizotinib; first compound 2 µM): 0.668
- relative viability (Doramapimod + Phenformin; first compound 0.02 µM): 0.495
- relative viability (Doramapimod + Phenformin; first compound 0.06325 µM): 0.458
- relative viability (Doramapimod + Phenformin; first compound 0.2 µM): 0.527
- relative viability (Doramapimod + Phenformin; first compound 0.6325 µM): 0.431
- relative viability (Doramapimod + Phenformin; first compound 2 µM): 0.389
- relative viability (RAF265 + Tozasertib; first compound 0.01 µM): 0.716
- relative viability (RAF265 + Tozasertib; first compound 0.03162 µM): 0.704
- relative viability (RAF265 + Tozasertib; first compound 0.1 µM): 0.738
- relative viability (RAF265 + Tozasertib; first compound 0.3162 µM): 0.655
- relative viability (RAF265 + Tozasertib; first compound 1 µM): 0.375

Cell Line: CAL-12T
- relative viability (IPA-3 + Phenformin; first compound 0.2 µM): 0.763
- relative viability (IPA-3 + Phenformin; first compound 0.6325 µM): 0.512
- relative viability (IPA-3 + Phenformin; first compound 2 µM): 0.529
- relative viability (IPA-3 + Phenformin; first compound 6.325 µM): 0.529
- relative viability (IPA-3 + Phenformin; first compound 20 µM): 0.694
- relative viability (Doramapimod + Crizotinib; first compound 0.02 µM): 0.687
- relative viability (Doramapimod + Crizotinib; first compound 0.06325 µM): 0.726
- relative viability (Doramapimod + Crizotinib; first compound 0.2 µM): 0.746
- relative viability (Doramapimod + Crizotinib; first compound 0.6325 µM): 0.635
- relative viability (Doramapimod + Crizotinib; first compound 2 µM): 0.727
- relative viability (Doramapimod + Phenformin; first compound 0.02 µM): 0.552
- relative viability (Doramapimod + Phenformin; first compound 0.06325 µM): 0.593
- relative viability (Doramapimod + Phenformin; first compound 0.2 µM): 0.621
- relative viability (Doramapimod + Phenformin; first compound 0.6325 µM): 0.625
- relative viability (Doramapimod + Phenformin; first compound 2 µM): 0.479
- relative viability (RAF265 + Tozasertib; first compound 0.01 µM): 0.392
- relative viability (RAF265 + Tozasertib; first compound 0.03162 µM): 0.308
- relative viability (RAF265 + Tozasertib; first compound 0.1 µM): 0.364
- relative viability (RAF265 + Tozasertib; first compound 0.3162 µM): 0.306
- relative viability (RAF265 + Tozasertib; first compound 1 µM): 0.172

Cell Line: NCI-H838
- relative viability (IPA-3 + Phenformin; first compound 0.2 µM): 0.857
- relative viability (IPA-3 + Phenformin; first compound 0.6325 µM): 0.576
- relative viability (IPA-3 + Phenformin; first compound 2 µM): 0.524
- relative viability (IPA-3 + Phenformin; first compound 6.325 µM): 0.517
- relative viability (IPA-3 + Phenformin; first compound 20 µM): 0.666
- relative viability (Doramapimod + Crizotinib; first compound 0.02 µM): 0.847
- relative viability (Doramapimod + Crizotinib; first compound 0.06325 µM): 0.807
- relative viability (Doramapimod + Crizotinib; first compound 0.2 µM): 0.872
- relative viability (Doramapimod + Crizotinib; first compound 0.6325 µM): 1.01
- relative viability (Doramapimod + Crizotinib; first compound 2 µM): 0.799
- relative viability (Doramapimod + Phenformin; first compound 0.02 µM): 0.607
- relative viability (Doramapimod + Phenformin; first compound 0.06325 µM): 0.577
- relative viability (Doramapimod + Phenformin; first compound 0.2 µM): 0.654
- relative viability (Doramapimod + Phenformin; first compound 0.6325 µM): 0.665
- relative viability (Doramapimod + Phenformin; first compound 2 µM): 0.595
- relative viability (RAF265 + Tozasertib; first compound 0.01 µM): 0.266
- relative viability (RAF265 + Tozasertib; first compound 0.03162 µM): 0.283
- relative viability (RAF265 + Tozasertib; first compound 0.1 µM): 0.288
- relative viability (RAF265 + Tozasertib; first compound 0.3162 µM): 0.311
- relative viability (RAF265 + Tozasertib; first compound 1 µM): 0.223

Cell Line: NCI-H2228
- relative viability (IPA-3 + Phenformin; first compound 0.2 µM): 0.556
- relative viability (IPA-3 + Phenformin; first compound 0.6325 µM): 0.31
- relative viability (IPA-3 + Phenformin; first compound 2 µM): 0.336
- relative viability (IPA-3 + Phenformin; first compound 6.325 µM): 0.377
- relative viability (IPA-3 + Phenformin; first compound 20 µM): 0.284
- relative viability (Doramapimod + Crizotinib; first compound 0.02 µM): 0.465
- relative viability (Doramapimod + Crizotinib; first compound 0.06325 µM): 0.385
- relative viability (Doramapimod + Crizotinib; first compound 0.2 µM): 0.425
- relative viability (Doramapimod + Crizotinib; first compound 0.6325 µM): 0.546
- relative viability (Doramapimod + Crizotinib; first compound 2 µM): 0.44
- relative viability (Doramapimod + Phenformin; first compound 0.02 µM): 0.249
- relative viability (Doramapimod + Phenformin; first compound 0.06325 µM): 0.385
- relative viability (Doramapimod + Phenformin; first compound 0.2 µM): 0.273
- relative viability (Doramapimod + Phenformin; first compound 0.6325 µM): 0.333
- relative viability (Doramapimod + Phenformin; first compound 2 µM): 0.27
- relative viability (RAF265 + Tozasertib; first compound 0.01 µM): 0.329
- relative viability (RAF265 + Tozasertib; first compound 0.03162 µM): 0.235
- relative viability (RAF265 + Tozasertib; first compound 0.1 µM): 0.334
- relative viability (RAF265 + Tozasertib; first compound 0.3162 µM): 0.211
- relative viability (RAF265 + Tozasertib; first compound 1 µM): 0.131

Cell Line: RERF-LC-KJ
- relative viability (IPA-3 + Phenformin; first compound 0.2 µM): 0.5
- relative viability (IPA-3 + Phenformin; first compound 0.6325 µM): 0.409
- relative viability (IPA-3 + Phenformin; first compound 2 µM): 0.509
- relative viability (IPA-3 + Phenformin; first compound 6.325 µM): 0.441
- relative viability (IPA-3 + Phenformin; first compound 20 µM): 0.462
- relative viability (Doramapimod + Crizotinib; first compound 0.02 µM): 0.88
- relative viability (Doramapimod + Crizotinib; first compound 0.06325 µM): 0.888
- relative viability (Doramapimod + Crizotinib; first compound 0.2 µM): 0.826
- relative viability (Doramapimod + Crizotinib; first compound 0.6325 µM): 0.789
- relative viability (Doramapimod + Crizotinib; first compound 2 µM): 0.823
- relative viability (Doramapimod + Phenformin; first compound 0.02 µM): 0.401
- relative viability (Doramapimod + Phenformin; first compound 0.06325 µM): 0.443
- relative viability (Doramapimod + Phenformin; first compound 0.2 µM): 0.395
- relative viability (Doramapimod + Phenformin; first compound 0.6325 µM): 0.472
- relative viability (Doramapimod + Phenformin; first compound 2 µM): 0.458
- relative viability (RAF265 + Tozasertib; first compound 0.01 µM): 0.54
- relative viability (RAF265 + Tozasertib; first compound 0.03162 µM): 0.482
- relative viability (RAF265 + Tozasertib; first compound 0.1 µM): 0.507
- relative viability (RAF265 + Tozasertib; first compound 0.3162 µM): 0.39
- relative viability (RAF265 + Tozasertib; first compound 1 µM): 0.386

Cell Line: NCI-H661
- relative viability (IPA-3 + Phenformin; first compound 0.2 µM): 0.31
- relative viability (IPA-3 + Phenformin; first compound 0.6325 µM): 0.266
- relative viability (IPA-3 + Phenformin; first compound 2 µM): 0.293
- relative viability (IPA-3 + Phenformin; first compound 6.325 µM): 0.259
- relative viability (IPA-3 + Phenformin; first compound 20 µM): 0.272
- relative viability (Doramapimod + Crizotinib; first compound 0.02 µM): 1.15
- relative viability (Doramapimod + Crizotinib; first compound 0.06325 µM): 1.07
- relative viability (Doramapimod + Crizotinib; first compound 0.2 µM): 1
- relative viability (Doramapimod + Crizotinib; first compound 0.6325 µM): 0.964
- relative viability (Doramapimod + Crizotinib; first compound 2 µM): 1.03
- relative viability (Doramapimod + Phenformin; first compound 0.02 µM): 0.297
- relative viability (Doramapimod + Phenformin; first compound 0.06325 µM): 0.272
- relative viability (Doramapimod + Phenformin; first compound 0.2 µM): 0.274
- relative viability (Doramapimod + Phenformin; first compound 0.6325 µM): 0.289
- relative viability (Doramapimod + Phenformin; first compound 2 µM): 0.308
- relative viability (RAF265 + Tozasertib; first compound 0.01 µM): 0.374
- relative viability (RAF265 + Tozasertib; first compound 0.03162 µM): 0.35
- relative viability (RAF265 + Tozasertib; first compound 0.1 µM): 0.314
- relative viability (RAF265 + Tozasertib; first compound 0.3162 µM): 0.351
- relative viability (RAF265 + Tozasertib; first compound 1 µM): 0.35

Cell Line: HCC-366
- relative viability (IPA-3 + Phenformin; first compound 0.2 µM): 0.715
- relative viability (IPA-3 + Phenformin; first compound 0.6325 µM): 0.584
- relative viability (IPA-3 + Phenformin; first compound 2 µM): 0.636
- relative viability (IPA-3 + Phenformin; first compound 6.325 µM): 0.567
- relative viability (IPA-3 + Phenformin; first compound 20 µM): 0.752
- relative viability (Doramapimod + Crizotinib; first compound 0.02 µM): 0.612
- relative viability (Doramapimod + Crizotinib; first compound 0.06325 µM): 0.513
- relative viability (Doramapimod + Crizotinib; first compound 0.2 µM): 0.487
- relative viability (Doramapimod + Crizotinib; first compound 0.6325 µM): 0.451
- relative viability (Doramapimod + Crizotinib; first compound 2 µM): 0.398
- relative viability (Doramapimod + Phenformin; first compound 0.02 µM): 0.623
- relative viability (Doramapimod + Phenformin; first compound 0.06325 µM): 0.605
- relative viability (Doramapimod + Phenformin; first compound 0.2 µM): 0.671
- relative viability (Doramapimod + Phenformin; first compound 0.6325 µM): 0.635
- relative viability (Doramapimod + Phenformin; first compound 2 µM): 0.547
- relative viability (RAF265 + Tozasertib; first compound 0.01 µM): 0.137
- relative viability (RAF265 + Tozasertib; first compound 0.03162 µM): 0.165
- relative viability (RAF265 + Tozasertib; first compound 0.1 µM): 0.138
- relative viability (RAF265 + Tozasertib; first compound 0.3162 µM): 0.0437
- relative viability (RAF265 + Tozasertib; first compound 1 µM): 0.0369

Cell Line: SK-LU-1
- relative viability (IPA-3 + Phenformin; first compound 0.2 µM): 0.775
- relative viability (IPA-3 + Phenformin; first compound 0.6325 µM): 0.54
- relative viability (IPA-3 + Phenformin; first compound 2 µM): 0.499
- relative viability (IPA-3 + Phenformin; first compound 6.325 µM): 0.509
- relative viability (IPA-3 + Phenformin; first compound 20 µM): 0.588
- relative viability (Doramapimod + Crizotinib; first compound 0.02 µM): 0.915
- relative viability (Doramapimod + Crizotinib; first compound 0.06325 µM): 0.929
- relative viability (Doramapimod + Crizotinib; first compound 0.2 µM): 0.909
- relative viability (Doramapimod + Crizotinib; first compound 0.6325 µM): 0.83
- relative viability (Doramapimod + Crizotinib; first compound 2 µM): 0.92
- relative viability (Doramapimod + Phenformin; first compound 0.02 µM): 0.613
- relative viability (Doramapimod + Phenformin; first compound 0.06325 µM): 0.516
- relative viability (Doramapimod + Phenformin; first compound 0.2 µM): 0.542
- relative viability (Doramapimod + Phenformin; first compound 0.6325 µM): 0.61
- relative viability (Doramapimod + Phenformin; first compound 2 µM): 0.46
- relative viability (RAF265 + Tozasertib; first compound 0.01 µM): 0.333
- relative viability (RAF265 + Tozasertib; first compound 0.03162 µM): 0.273
- relative viability (RAF265 + Tozasertib; first compound 0.1 µM): 0.296
- relative viability (RAF265 + Tozasertib; first compound 0.3162 µM): 0.278
- relative viability (RAF265 + Tozasertib; first compound 1 µM): 0.204
